{
  "source": "patent US8481716B2",
  "about": "(Wacker Chemie AG, priority 2004, dated 2013)",
  "format_in_all_cases": "physicochemical",
  "key": {"[1]": {"experiment": "Temperature stability at 40° C."}, "[2]": {"experiment": "Differential Scanning Calorimetry analysis for uncomplexed alpha-lipoic acid", "conditions": "DSC", "procedure": "Cyclodextrin complexes (3-6 mg sample size) were analyzed using Differential Scanning Calorimeter (DSC). […] This peak, if present, was compared to a peak at this temperature of pure alpha-lipoic acid to calculate percentage of uncomplexed alpha-lipoic acid in the complex. […] The peak around 60° C. decreases with increasing degree of complexation."}, "[3]": {"experiment": "Temperature stability at 100° C."}, "[4]": {"experiment": "Temperature stability at 25° C.", "conditions": "for Content ALA: 25° C.", "procedure": "Alpha lipic acid/cyclodextrin complexes were stored in a closed polypropylene container at 25° C."}, "[5]": {"conditions": "closed polypropylene container, 0 days of storage, initial content set to 100%"}},
  "data": [
    {"smiles": "O=C(O)CCCCC1CCSS1", "note": "(stereo not drawn) [Pure ALA, Alpha-lipoic acid]", "values": [
      {"measurement": "Content ALA", "setting": "[1]; 8 days of storage", "value": 99, "unit": "%"},
      {"measurement": "Content ALA", "setting": "[1]; 39 days of storage", "value": "48*) %"},
      {"measurement": "Content ALA", "setting": "[1]; 81 days of storage", "value": "41*) %"},
      {"measurement": "Content ALA", "setting": "[1]; [5]", "value": "100 ^ %"},
      {"measurement": "Non Complexed ALA", "setting": "[2]; melting peak around 60° C. compared to pure ALA", "value": 100, "unit": "%"},
      {"measurement": "Complexed ALA", "setting": "[2]; complexed ALA in product", "value": 0.0, "unit": "%"},
      {"measurement": "Content ALA", "setting": "[3]; 3 days of storage", "value": 38, "unit": "%"},
      {"measurement": "Content ALA", "setting": "[3]; 11 days of storage", "value": 13, "unit": "%"},
      {"measurement": "Content ALA", "setting": "[3]; 28 days of storage", "value": 4, "unit": "%"},
      {"measurement": "Content ALA", "setting": "[3]; 36 days of storage", "value": 0, "unit": "%"},
      {"measurement": "Content ALA", "setting": "[3]; closed glass containers, 0 days of storage, initial content set to 100%", "value": 100, "unit": "%"},
      {"measurement": "stability at room temperature", "setting": "[4]; 25° C. storage", "value": "stable at room temperature"},
      {"measurement": "Content ALA", "setting": "[4]; 39 days of storage", "value": 100, "unit": "%"},
      {"measurement": "Content ALA", "setting": "[4]; 67 days of storage", "value": 100, "unit": "%"},
      {"measurement": "Content ALA", "setting": "[4]; 107 days of storage", "value": 100, "unit": "%"},
      {"measurement": "Content ALA", "setting": "[4]; [5]", "value": 100, "unit": "%"}
    ]}
  ]
}
